Measurements from ChEMBL document CHEMBL1131746, “Synthesis of taxoids 5. Synthesis and evaluation of novel water-soluble prodrugs of a 3'-desphenyl-3'-cyclopropyl analogue of docetaxel” (Bioorg Med Chem Lett, 1999).
Values after ≈ are worked out from the molar mass of the structure shown.

Key:
[1] = tested on: Mus musculus; assay: Antitumor activity was measured as change in body weight on day 10 in mice implanted with B16 melanoma cells at dose of 12.5 mg/kg/day; type: functional
[2] = Solubility in saline; type: physicochemical; conditions: read-out: S
[3] = tested on: Mus musculus; assay: Compound was evaluated for antitumor activity by iv administration against B16 melanoma implanted sc in mice at dose 12.5 mg/kg/day; type: functional
[4] = tested on: SK-LU-1; assay: Inhibitory concentration required against SK-LU-1 human lung cancer cell line was determined; type: functional, cell-based
[5] = tested on: Mus musculus; assay: Compound was evaluated for antitumor activity by iv administration against B16 melanoma implanted sc in mice at dose 20 mg/kg/day; type: functional
[6] = tested on: WiDr; assay: Inhibitory concentration required against WiDr human colon cancer cell line was determined; type: functional, cell-based
[7] = tested on: Mus musculus; assay: Antitumor activity was measured as change in body weight on day 10 in mice implanted with B16 melanoma cells at dose of 20 mg/kg/day; type: functional
[8] = Inhibitory concentration required against MKN1 human stomach cancer cell line was determined; type: functional, cell-based; conditions: cancer cell lines
[9] = tested on: SK-BR-3; assay: Inhibitory concentration required against SK-BR-3 human breast cancer cell line was determined; type: functional, cell-based
[10] = tested on: OVCAR-3; assay: Inhibitory concentration required against OVCAR-3 human ovarian cancer cell line was determined; type: functional, cell-based
[11] = Inhibitory concentration required against Colon320 human colon cancer cell line was determined; type: functional, cell-based; conditions: cancer cell lines
[12] = tested on: Mus musculus; assay: Antitumor activity was measured as change in body weight on day 10 in mice implanted with B16 melanoma cells at a dose of 6.3 mg/kg/day; type: functional
[13] = Ratio of IC50 of docetaxel / IC50 against MKN1 cell line was determined; type: functional, MKN-1
[14] = Ratio of IC50 of docetaxel / IC50 against WiDr cell line was determined; type: functional
[15] = Ratio of IC50 of docetaxel / IC50 against Colon 320 cell line was determined; type: functional, COLO 320
[16] = Ratio of IC50 of docetaxel / IC50 against OVCAR-3 cell line was determined; type: functional
[17] = tested on: Mus musculus; assay: Compound was evaluated for antitumor activity by iv administration against B16 melanoma implanted sc in mice at a dose of 6.3 mg/kg/day; type: functional
[18] = Ratio of IC50 of docetaxel / IC50 against SK-BR-3 cell line was determined; type: functional
[19] = Ratio of IC50 of docetaxel / IC50 against SK-LU-1 cell line was determined; type: functional

Question: For `CNC(=O)[C@@H](N)CC(=O)OCOC(=O)O[C@@H](C(=O)O[C@H]1C[C@@]2(O)[C@@H](OC(=O)c3ccccc3)[C@@H]3[C@]4(OC(C)=O)CO[C@@H]4C[C@H](O)[C@@]3(C)C(=O)[C@H](O)C(=C1C)C2(C)C)[C@@H](NC(=O)OC(C)(C)C)C1CC1`, which Body weight change [1] is on record?
Answer: -0.5%

Question: And the solubility [2]?
Answer: 10000 µg/mL (≈ 10.3 mM)

Question: And the ILS at 12.5 mg/kg/day [3]?
Answer: 185%

Question: With `CCOC(=O)[C@@H](N)CC(=O)OCOC(=O)O[C@@H](C(=O)O[C@H]1C[C@@]2(O)[C@@H](OC(=O)c3ccccc3)[C@@H]3[C@]4(OC(C)=O)CO[C@@H]4C[C@H](O)[C@@]3(C)C(=O)[C@H](O)C(=C1C)C2(C)C)[C@@H](NC(=O)OC(C)(C)C)C1CC1` as the compound, how does the Body weight change [1] read?
Answer: -2.9%

Question: And the solubility [2]?
Answer: 10000 µg/mL (≈ 10.1 mM)

Question: And the ILS at 12.5 mg/kg/day [3]?
Answer: 213%

Question: With `CC(=O)O[C@@]12CO[C@@H]1C[C@H](O)[C@@]1(C)C(=O)[C@H](O)C3=C(C)[C@@H](OC(=O)[C@H](OC(=O)OCOC(=O)C[C@H](N)C(N)=O)[C@@H](NC(=O)OC(C)(C)C)C4CC4)C[C@@](O)([C@@H](OC(=O)c4ccccc4)[C@H]21)C3(C)C` as the compound, how does the Body weight change [1] read?
Answer: -3.2%

Question: What about the solubility [2] of the same compound?
Answer: 5000 µg/mL (≈ 5.21 mM)

Question: And the ILS at 12.5 mg/kg/day [3]?
Answer: 227%

Question: Which IC50 [4] does the source give for `CC(=O)O[C@@]12CO[C@@H]1C[C@H](O)[C@@]1(C)C(=O)[C@H](O)C3=C(C)[C@@H](OC(=O)[C@H](O)[C@@H](NC(=O)OC(C)(C)C)c4ccccc4)C[C@@](O)([C@@H](OC(=O)c4ccccc4)[C@H]21)C3(C)C.O.O.O` [DOCETAXEL] here?
Answer: 1.8 nM

Question: And the ILS at 20 mg/kg/day [5]?
Answer: 149%

Question: What about the IC50 [6] of the same compound?
Answer: 0.43 nM

Question: What about the Body weight change [7] of the same compound?
Answer: -13%

Question: What about the IC50 [8] of the same compound?
Answer: 1.7 nM

Question: And the IC50 [9]?
Answer: 4.7 nM

Question: What about the IC50 [10] of the same compound?
Answer: 1.2 nM

Question: And the IC50 [11]?
Answer: 4.8 nM

Question: Which Body weight change [1] does the source give for `CC(=O)O[C@@]12CO[C@@H]1C[C@H](O)[C@@]1(C)C(=O)[C@H](O)C3=C(C)[C@@H](OC(=O)[C@H](OC(=O)OCOC(=O)C[C@@H](N)C(N)=O)[C@@H](NC(=O)OC(C)(C)C)C4CC4)C[C@@](O)([C@@H](OC(=O)c4ccccc4)[C@H]21)C3(C)C` here?
Answer: -11.1%

Question: What about the solubility [2] of the same compound?
Answer: 50000 µg/mL (≈ 52.1 mM)

Question: And the ILS at 12.5 mg/kg/day [3]?
Answer: 127%

Question: For `CC(=O)O[C@@]12CO[C@@H]1C[C@H](O)[C@@]1(C)C(=O)[C@H](O)C3=C(C)[C@@H](OC(=O)[C@H](OC(=O)OCOC(=O)C[C@H](N)C(=O)O)[C@@H](NC(=O)OC(C)(C)C)C4CC4)C[C@@](O)([C@@H](OC(=O)c4ccccc4)[C@H]21)C3(C)C`, which Body weight change [1] is on record?
Answer: 3.3%

Question: And the solubility [2]?
Answer: 1000 µg/mL (≈ 1.04 mM)

Question: What about the ILS at 12.5 mg/kg/day [3] of the same compound?
Answer: 212%

Question: What does the source list for `CC(=O)O[C@@]12CO[C@@H]1C[C@H](O)[C@@]1(C)C(=O)[C@H](O)C3=C(C)[C@@H](OC(=O)[C@H](O)[C@@H](NC(=O)OC(C)(C)C)C4CC4)C[C@@](O)([C@@H](OC(=O)c4ccccc4)[C@H]21)C3(C)C`?
Answer: Body weight change [12]: -7.5%; Ratio [13]: 1.4; Ratio [14]: 16; Ratio [15]: 23; IC50 [4]: 1 nM; Ratio [16]: 2.3; ILS at 6.3 mg/kg/day [17]: 187%; IC50 [6]: 0.027 nM; IC50 [8]: 1.2 nM; Ratio [18]: 4.3; IC50 [9]: 1.1 nM; IC50 [10]: 0.52 nM; IC50 [11]: 0.21 nM; Ratio [19]: 1.8
